The results in this text go back to publication PMC10783051 (Microbiology Spectrum, 2023).

The data set has as its system Streptomyces venezuelae ATCC 10712. Description: Confrontation assay B. velezensis GA1 / S. venezuelae on REM plate, UPLC-MS metabolite profiling of the agar. As to conditions: gelified REM, 3 days at 26°C. The method, then: Confrontation assays were performed on square Petri dishes (12 × 12 cm) with 40 mL of REM solid medium at 26°C (REM supplemented with 14 g/L of agar).
S. venezuelae ATCC 10712 was inoculated as stripes (1 × 12 cm) in the middle of the plate with 40 µL of spore suspension (10^7 spores/mL) and spread with a cotton swab. Next, B. velezensis GA1 cells were collected from fresh precultures as described and adjusted to OD600 nm 0.1. Then, 5 µL of B. velezensis GA1 suspension was spotted at 1 cm of the Streptomyces line. Control plates were done following the same procedure without the inoculation of either Bacillus or Streptomyces. Plates were then incubated for 3 days at 26°C in the dark. Pictures of the plates were then captured using a CoolPix camera (NIKKOR ×60 wide optical zoom extra-low dispersion vibration reduction 4.3–258.0 mm 1:33 to 6.5).
The extraction of the metabolites from the agar was performed as follows. For the confrontation experiment, we precisely sampled the area of agar (2 × 1 cm) near the colony of Bacillus or Streptomyces (the confrontation zone is 1 cm wide) with standardized plugs. For the in planta, we sampled the agar area (1 × 1 cm) near the tomato roots. In both cases, the agar samples were transferred to Eppendorf tubes and placed for 24 h at −20°C. Then, the agar was thawed at room temperature and centrifuged for 10 min at 13,000 rpm. The supernatants were then collected and filtered (0.22-µm pore size filters) before UPLC-MS analysis.
All UPLC-MS analyses were performed using an Agilent 1290 Infinity II coupled with a diode array detector and a mass detector (Jet Stream ESI-Q-TOF 6530) in positive mode with the parameters set up as follows: capillary voltage of 3.5 kV, nebulizer pressure of 35 lb/in^2, drying gas of 8 L/min, drying gas temperature of 300°C, flow rate of sheath gas of 11 L/min, sheath gas temperature of 350°C, fragmentor voltage of 175 V, skimmer voltage of 65 V, and octopole radiofrequency of 750 V. Accurate mass spectra were recorded in the m/z range of 300–1,700. For untargeted MS/MS, we used the same MS1 parameters as described. We added MS2 untargeted acquisition mode with the parameters as follows: MS/MS range 50–1,700 m/z; MS/MS scan rate 3 spectra/s; isolation width MS/MS medium (approx. 4 AMU), Decision Engine Native; fixed collision energies of 25 and 40 V for surfactin, 50 V for iturin, and 60 V for fengycin experiments; precursor selection: three for the surfactin experiment, four for the iturin and fengycin experiments, threshold 1,500 (Abs), isotope model common, active exclusion after two spectra and release after 0.5 min, sorting the precursors by charge state then abundance (charge state preference 1). For targeted MS/MS, we used the same MS1 parameters MS/MS range of 50–1,700 m/z or 50–3,200 (when required for Pseudomonas CLPs with mass >1,700 Da), MS/MS scan rate 3 spectra/s, isolation width MS/MS narrow (approx. 1.3 amu), and fixed collision energies 20, 40, and 60V. In all experiments, a C18 Acquity UPLC ethylene bridged hybrid column (2.1 mm × 50 mm × 1.7 µm; Waters Corporation, Milford, MA, USA) was used at a flow rate of 0.6 mL/min and a temperature of 40°C. The injection volume was 20 µL, and the diode array detector scanned a wavelength spectrum between 190 and 600 nm. Unless otherwise mentioned, a gradient of acidified water (0.1% formic acid) (solvent A) and of acidified acetonitrile (0.1% formic acid) (solvent B) was used as mobile phase with a constant flow rate of 0.6 mL/min, starting at 10% B and rising to 100% B in 20 min. Solvent B was kept at 100% for 4 min before going back to the initial ratio. MassHunter Workstation (version 10.0) and ChemStation software were used for data collection and analysis. For untargeted analysis of iturin and fengycin degradation products, we used the same solvent and flow rate, starting at 10% B to 20% in 2 min, then rising to 50% B at 14 min and 100% B at 25 min, followed by 100% B and 5 at 10% B at 6 min.

iturin: the “shorter CLP fragment detected in the confrontation zone but not in Bv monoculture” value (UPLC-MS, MS/MS) was “loss of asparagine in position 3”. Where the note is “agar extract of confrontation zone, UPLC-Q-TOF-MS peak areas, three biological replicates”, the “abundance of the CLP in the confrontation zone compared with monocultures” value is listed as “decrease in the abundance”.
